Entries after “also recorded” stand apart in the source; their conditions may differ. Where a name gives a salt, the structure may show the parent alone.
Experiments:
[1] = Hygroscopicity test (VTI SGA-100); assay type: physicochemical; conditions: for hygroscopicity (in words): 5 to 95% of relative humidity; for relative humidity from which an increase in the weight is observed: measurement interval 5% of relative humidity; for stability of the crystal (in words): judged with the hygroscopicity result
Method: The hygroscopicity was measured using VTI SGA-100 under the following conditions. Temperature: 25° C., measurement range: from 5 to 95% of relative humidity, measurement interval: 5% of relative humidity.

[2] = Solubility in recrystallization solvent; assay type: physicochemical; conditions: 37% to 50% ethanol aqueous solution, as compared with the α-form crystal
Male kk mice = experiment: Hypoglycemic test in kk mice (insulin resistance model: obesity and hyperglycemia); assay type: in vivo; conditions: oral, once daily for 7 days, blood glucose 15 to 18 hours after final administration, n=6
Method: Hypoglycemic Test in kk Mice (Insulin Resistance Model: Obesity and Hyperglycemia) Male kk mice (blood glucose level: 200 mg/dL or more) were measured for blood glucose level under feeding and then randomly classified into groups. The drug to be tested was compulsorily orally administered once daily for 7 days, and the blood glucose level after 15 to 18 hours from the final administration was compared with that before the administration (n=6). The blood was collected from a tail vein of the mouse using a glass capillary (previously treated with heparin), a protein was removed therefrom, and the amount of glucose in the supernatant (mg/dL) was measured by colorimetric determination by means of the glucose oxidase method. Further, a dose by which the blood glucose level was reduced by 30% as compared with that before the administration of the drug to be tested was expressed as an ED30 value.

[3] = 25° C., listed as (R)-2-(2-aminothiazol-1-4-yl)-4′-[2-[(2-hydroxy-2-phenylethyl)amino]ethyl]-aceta, dihydrochloride

Compound	hygroscopicity (in words) ([1]; 25° C.)	relative humidity from which an increase in the weight is observed ([1]; 25° C.)	moisture held ([1]; 25° C., relative humidity not stated for the value (measurement range 5 to 95%))	solubility in a recrystallization solvent [2]	moisture-holding amount ([1]; 25° C., over the entire range of relative humidity from 5% to 95%)	stability of the crystal (in words) [1]	ED30 value (dose by which the blood glucose level was reduced by 30% as compared with that before the administration) (Male kk mice)	hygroscopicity (in words) ([1]; 25° C., dihydrochloride)	hygroscopicity (in words) [1, 3]	hygroscopicity (in words) ([1]; 25° C., listed as (R)-2-(2-aminothiazol-4-yl)-4′-[2-[(2-hydroxy-2-phenylethyl)amino]ethyl]-acetani, dihydrochloride)	hygroscopicity (in words) ([1]; 25° C., listed as dihydrochloride, dihydrochloride)	moisture held ([1]; 25° C., at a relative humidity of 90%)	relative humidity from which an increase in the weight is observed ([1]; 25° C., dihydrochloride) [%]	relative humidity from which an increase in the weight is observed [1, 3]	stability of the crystal (in words) ([1]; dihydrochloride)	stability of the crystal (in words) ([1]; listed as (R)-2-(2-aminothiazol-4-yl)-4′-[2-[(2-hydroxy-2-phenylethyl)amino]ethyl]-acetani, dihydrochloride)	stability of the crystal (in words) ([1]; listed as dihydrochloride, dihydrochloride)
Nc1nc(CC(=O)Nc2ccc(CCNC[C@H](O)c3ccccc3)cc2)cs1 [β-form crystal, (R)-2-(2-aminothiazol-4-yl)-4′-[2-[(2-hydroxy-2-phenylethyl)amino]ethyl]acetanilide]	weak hygroscopicity	about 20%	about 3%	high solubility	–	–	–	–	–	–	–	–	–	–	–	–	–
Nc1nc(CC(=O)Nc2ccc(CCNC[C@H](O)c3ccccc3)cc2)cs1 [α-form crystal, (R)-2-(2-aminothiazol-4-yl)-4′-[2-[(2-hydroxy-2-phenylethyl)amino]ethyl]acetanilide]	not exhibiting hygroscopicity; also recorded: does not exhibit hygroscopicity; also recorded: did not exhibit hygroscopicity	–	–	–	not more than 0.2%	stable; also recorded: excellent in stability	not more than 3.5 mg/kg/day	–	–	–	–	–	–	–	–	–	–
Nc1nc(CC(=O)Nc2ccc(CCNC[C@H](O)c3ccccc3)cc2)cs1 [dihydrochloride crystal, (R)-2-(2-aminothiazol-4-yl)-4′-[2-[(2-hydroxy-2-phenylethyl)amino]ethyl]-acetanilide dihydrochloride, reference compound]	–	–	–	–	–	–	–	strongly hygroscopic	strong hygroscopicity	strong hygroscopicity	strong hygroscopicity	about 14%	80	about 80%	unstable	unstable	unstable

From patent publication US7982049B2, “α-form or β-form crystal of acetanilide derivative” (Astellas Pharma Inc., priority 2001, dated 2011)
